Reference: US20050239844A1, “Composition fo preventing secretion of immunoglobulin e-dependent histamine releasing factor” (KYUNG-LIM LEE, priority 2002, published 2005)

Columns and labels:
Format in all cases: in vivo
SD mice = assay: Anaphylaxis reaction caused by C48/80: mortality; conditions: pantoprazole 10 mg/kg tail vein 30 minutes before C48/80 10 mg/kg tail vein; survival for one hour
Method: SD mice weighing 200-220 g were divided into three groups consisting of a negative control group, a positive control group and a test group, each group consisting of eight animals.
30 minutes after this pretreatment, the negative control group was injected with a phosphate buffer saline through the tail vein, the positive control group and the test group were injected with 10 mg/kg of C48/80 through the tail vein. After the injection, the number of individuals died of anaphylaxis reaction caused by C48/80 was observed. The standard of death and survival was determined by whether or not the animals survive for one hour after C48/80 administration.

BALBc male mice [1] = assay: Ovalbumin-induced allergic rhinitis: symptom score; conditions: 7 days, sneezing and nose scratching counted for 15 minutes
Method: 3-week-old BALBc male mice weighing 15-25 g were divided into four groups each comprising 6 or 7 animals, and then bred in a specific pathogen-free (SPF) environment for 35 days. In order to induce allergic rhinitis, 10 μg of ovalbumin (grade V, Sigma Chemical Co., Phillipsberg, N.Y.) and 1 mg of aluminum hydroxide (Al(OH)3) gel were mixed with 0.3 ml phosphate buffered saline for at least 30 minutes to prepare an ovalbumin mixture. 0.1 ml of the mixture was injected into the abdominal cavity of the mice, and each at 5, 14 and 21 days later, injected once more into the abdominal cavity. At one week after the final injection into the abdominal cavity (28 days later), 30 μl phosphate buffered saline or a mixture of 100 μg ovalbumin with 30 μl phosphate buffered saline was administered into the nasal cavity using a micropipette. […] Then, in each mouse, the number of expression of characteristic symptoms of allergic rhinitis, i.e., the number of expression of symptoms, such as sneezing and the action of scratching the nose, was measured for 15 minutes after a given period, and their sum was recorded as a symptom score. The symptom score was recorded as the mean of scores measured by two observers, and scores having at least 30% difference between the two observers were excluded.

BALBc male mice [2] = assay: Ovalbumin-induced allergic rhinitis: eosinophil number in nasal mucosa (histology); conditions: under mucosa of anterior inferior turbinate, 400× magnification
Method: 3-week-old BALBc male mice weighing 15-25 g were divided into four groups each comprising 6 or 7 animals, and then bred in a specific pathogen-free (SPF) environment for 35 days. In order to induce allergic rhinitis, 10 μg of ovalbumin (grade V, Sigma Chemical Co., Phillipsberg, N.Y.) and 1 mg of aluminum hydroxide (Al(OH)3) gel were mixed with 0.3 ml phosphate buffered saline for at least 30 minutes to prepare an ovalbumin mixture. 0.1 ml of the mixture was injected into the abdominal cavity of the mice, and each at 5, 14 and 21 days later, injected once more into the abdominal cavity. At one week after the final injection into the abdominal cavity (28 days later), 30 μl phosphate buffered saline or a mixture of 100 μg ovalbumin with 30 μl phosphate buffered saline was administered into the nasal cavity using a micropipette. […] The administration of ovalalbumin into the nasal cavity and the pretreatment with the drugs before this administration were performed for 7 days, one time a day, and the next day after the administration for 7 days, the mice of all the groups was euthanized by inhalation with carbonic acid gas. […] The measured results were statistically analyzed by the Mann-Whitney U-test, using SPSS for Windows version 10 (SPSS Inc., Chicago), and were determined to be statistically significant at p<0.05.

With `COc1ccnc(C[S+]([O-])c2nc3ccc(OC(F)F)cc3[nH]2)c1OC` (centres unmarked) [Inventive composition, pantoprazole] the “Mortality (number of dead individuals/number of total individuals)” value (SD mice) was 4/8, the “Symptom score, Mean” value (BALBc male mice [1]; pantoprazole 10 mg/kg into abdominal cavity 30 minutes before nasal ovalbumin) was 27.29 and the “Symptom score, Mean” value (BALBc male mice [1]; pantoprazole 100 mg/kg into abdominal cavity 30 minutes before nasal ovalbumin) was 48.00. The “eosinophil number (row printed as Symptom score), Mean” value (BALBc male mice [2]; pantoprazole 10 mg/kg) was 5.57 and the “eosinophil number (row printed as Symptom score), Mean” value (BALBc male mice [2]; pantoprazole 100 mg/kg) was 4.29.
